In patent publication US10973771B2, “Method of making particles for use in a pharmaceutical composition” (VECTURA LIMITED, priority 2000, dated 2021):

Assay: Fine particle fraction, capsule fired from twin stage impinger (TSI)
Format: physicochemical
Settings: 20mg capsule fired from a twin stage impinger
Method: The 3:1 and the 19:1 blends were then each loaded into a 20mg capsule and fired from a twin stage impinger. A sample of unprocessed salbutamol sulphate was also fired from the TSI to provide a comparison.

- Fine Particle Fraction %: 28%
Substance: salbutamol sulphate
